Laboratory results: patent US20060135494A1, “Methods of treating injuries of the nervous system associated with hemorrhage” (priority 2002, published 2006)

What was measured:
collagenase-induced ICH = experiment: Neurological testing: apomorphine-induced rotational behavior after ICH; format: in vivo, rat; details: 2 days after ICH; vehicle approximately 20
Text: All animals received humane care in compliance with the institute's guidelines as outlined in “Guide for the Care and Use of Laboratory Animals” prepared by the National Academy of Sciences and published by the National Institutes of Health (NIH publication no. 86-23, revised 1985). Female Sprague-Dawley rats (250-300 grams (g); Harlan Sprague-Dawley, Inc., Indianapolis, Ind.) were anesthesized with an intramuscular injection of a mixture of ketamine and xylazine and set in supine in a Kopf headholder. The right carotid artery, external and internal branches, was exposed and the distal end of the external carotid freed and retracted to line with the internal carotid. A PE-10 polyethylene tube (Becton-Dickinson, Sparks, Md.) was then introduced from the external into the internal carotid artery, and the former was ligated to hold the tube. […]
The animals were tested for rotational behavior in response to apomorphine 2 days after surgery. Apomorphine (1 mg/kg bw; Sigma Chemical Co.) was injected subcutaneously, and rotations were determined by a computer-controlled Columbus Instruments Videomex-V system (Columbus, Ohio). […] Step initiation was assessed at 2 days after ICH by independently analyzing stepping behavior in the left and right forelimbs. […] The number of steps initiated by each limb was counted during a 1-minute period.

Bcl-2, Bcl-xL, Bax = experiment: Bcl-2 family protein (immunoblot) and mRNA (RT-PCR) in ICH rat brain; format: in vivo; details: TUDCA 10-200 mg/kg bw, ipsilateral hemisphere
Text: All animals received humane care in compliance with the institute's guidelines as outlined in “Guide for the Care and Use of Laboratory Animals” prepared by the National Academy of Sciences and published by the National Institutes of Health (NIH publication no. 86-23, revised 1985). Female Sprague-Dawley rats (250-300 grams (g); Harlan Sprague-Dawley, Inc., Indianapolis, Ind.) were anesthesized with an intramuscular injection of a mixture of ketamine and xylazine and set in supine in a Kopf headholder. The right carotid artery, external and internal branches, was exposed and the distal end of the external carotid freed and retracted to line with the internal carotid. A PE-10 polyethylene tube (Becton-Dickinson, Sparks, Md.) was then introduced from the external into the internal carotid artery, and the former was ligated to hold the tube. TUDCA (Calbiochem-Novabiochem Corp., San Diego, Calif.) was dissolved in phosphate buffer, pH 7.4 at […] milligrams per milliliter (mg/ml). Saline or TUDCA solution (1 milliliter per kilogram body weight (ml/kg bw)) were injected directly into the internal carotid artery, within 5 minutes. Different concentrations of TUDCA (10, 50, 100, and 200 mg/kg bw) were administered 1 hour prior to, or 1, 3, and 6 hours after collagenase injection. The polyethylene tube was finally removed, the end of the external carotid artery cauterized, and the wound closed. To induce stroke injury, the animals were placed in a stereotaxic apparatus and ICH induced by collagenase infusion (Rosenberg et al., Stroke 1990;21:801-807 and Chesney et al., Stroke 1995;26:312-316). In brief, a midline incision was made through the scalp to expose the skull. […] (0.5 microliters per minute (μL/min)) of saline containing 0.5 unit (U) bacterial collagenase (type VII; Sigma Chemical Co., St. Louis, Mo.) was made stereotaxically into the striatum with a 10-μl Hamilton syringe at the following coordinates: 0.4 millimeter (mm) anterior and 3.0 mm lateral to bregma and 5.0 mm ventral to the cortical surface. Once the infusion was complete, the Hamilton syringe was left in place for 3 minutes. Body temperature was maintained at 37° C. with a CMA/150 temperature controller throughout the surgery. The rats recovered from surgery in a cage containing food and heated by an incandescent light bulb. Neurological testing was performed at 2 days after induction of ICH. The animals were then sacrificed, and the brains removed and frozen at −70° C. for either serial cryostat sectioning, or RNA and protein extraction. In a subset of animals, serum and brain samples were collected for bile acid analysis.
Changes in Bcl-2 family expression were determined by RT-PCR. Total RNA was extracted from brain tissue using the TRIZOL reagent from Life Technologies, Inc. (Grand Island, N.Y.). For RT-PCR, 5 μg of total RNA was reverse-transcribed using oligo(dT) (IDT, Inc., Coralville, Iowa) and SUPERSCRIPT II reverse transcriptase (Life Technologies Inc.). Specific oligonucleotide primer pairs were incubated with cDNA template for PCR amplification using the Expand High Fidelity PCR System from Roche Diagnostics, GmbH. […] Amplified PCR products were analyzed by agarose gel electrophoresis and ethidium bromide staining. […]

C[C@H](CCC(=O)NCCS(=O)(=O)O)[C@H]1CC[C@H]2[C@@H]3[C@@H](O)C[C@@H]4C[C@H](O)CC[C@]4(C)[C@H]3CC[C@]12C [TUDCA, tauroursodeoxycholic acid]
rotational response to apomorphine (collagenase-induced ICH): less than 10 per 5 minutes | Bax protein (Bcl-2, Bcl-xL, Bax): returned to contralateral hemisphere values | Bcl-XL mRNA (RT-PCR, words) (Bcl-2, Bcl-xL, Bax): decreased | Bcl-xL protein levels (Bcl-2, Bcl-xL, Bax): slightly diminished | transcriptional activation of Bcl-2 (mRNA, RT-PCR, words) (Bcl-2, Bcl-xL, Bax): further increased | Bcl-2 protein levels (Bcl-2, Bcl-xL, Bax; dose-response study): remained elevated
